Target: SARS-CoV-2 Mpro (Severe acute respiratory syndrome coronavirus 2, UniProt P0DTD1)
Experiment: biochemical
Assay type: biochemical

Molecule `NS(=O)(=O)c1ccc(NC(=O)Cn2cc(CN3C(=O)C(=O)c4ccccc43)nn2)cc1` [6a, 2–(4-((2,3-Dioxoindolin-1-yl)methyl)-1H-1,2,3-triazol-1-yl)-N-(4-sulfamoylphenyl)acetamide] has an IC50 of 0.562 ± 0.005 µM.

In the case of `NS(=O)(=O)c1ccc(NC(=O)Cn2cc(CN3C(=O)C(=O)c4cc(OC(F)(F)F)ccc43)nn2)cc1` [6d, 2–(4-((2,3-Dioxo-5-(trifluoromethoxy)indolin-1-yl)methyl)-1H-1,2,3-triazol-1-yl)-N-(4-sulfamoylphenyl)acetamide], the IC50 is reported as 1.05 ± 0.053 µM and the “fold decreased 3CL-Pro inhibitory activity than unsubstituted counterpart 6a” value is reported as “about 2 fold”.

`CC(=O)c1ccc(NC(=O)Cn2cc(CN3C(=O)C(=O)c4ccccc43)nn2)cc1` [10a, N-(4-Acetylphenyl)-2–(4-((2,3-dioxoindolin-1-yl)methyl)-1H-1,2,3-triazol-1-yl)acetamide] was tested, and the IC50 was 12.3 ± 0.73 µM.

In the case of `COc1ccc2c(c1)C(=O)C(=O)N2Cc1cn(CC(=O)Nc2ccc(C(C)=O)cc2)nn1` [10b, N-(4-Acetylphenyl)-2–(4-((5-methoxy-2,3-dioxoindolin-1-yl)methyl)-1H-1,2,3-triazol-1-yl)acetamide], the IC50 is reported as 17.1 ± 0.815 µM.
